The target in test [1] is T1, HSP90 (Homo sapiens, UniProt P07900).
T1 construct: purchased Stressgen SPP-776
As to the kind of experiment: HSP90 binding, fluorescence polarization with GM-FITC. The following applies: displacement of GM-FITC 5 nM, 30 nM HSP90, 4 °C, 4 h; read-out: Binding HSP90 (FP) IC50. The method, then: GM-FITC Geldanamycin-fluorescein-5-isothiocyanate (working concentration: 1–400 nM), supplied by Invivogen (06C23-MT, San Diego, CA, USA), was previously dissolved in DMSO to obtain 10 mM stock solutions and kept at −20 °C until use. […] The compounds were previously dissolved in DMSO to obtain stock solutions and kept at −20 °C. The day of experiment, the compounds were prepared by serial dilutions in assay buffer (HFB) containing 20 mM HEPES (K) pH 7.3, 50 mM KCl, 5 mM MgCl2, 20 mM Na2MoO4 and 0.01% NP40. Before each use, 0.1 mg/mL Bovine Gamma globulin and 2 mM DTT were freshly added. […] The plate was mixed on a shaker at 4 °C for 4 h, and the FP values in mP (millipolarization units) were recorded. […] Curve fitting was performed using Prism GraphPad software program (GraphPad software, Inc., San Diego, CA, USA).

The test system of test [2] is A431. The test is described as follows: Cell-counting assay, 72-h drug exposure. Format: cell-based. The conditions noted are these: Homo sapiens, A-431, read-out: Cell Growth Inhibitory Activity A431 IC50 72 h. The source says:
(§1) For the cytotoxic activity studies and determination of GI50 concentrations in three different tumor cell lines, the cell culture conditions are described in Section 3.5. For the studies on the effect on % viable cells, cell cycle, cellular proliferation, and apoptosis, culture conditions are described in Section 3.6.1. For the remaining studies, the epithelial carcinoma cell line A431 and the non-small cell lung carcinoma cell line NCI-H460 were routinely grown in RPMI 1640 (Lonza, Vierviers, Belgium), supplemented with 10% (v/v) heat-inactivated fetal bovine serum (FBS, GIBCO, Invitrogen, Paisley, UK). The human peritoneal mesothelioma cell line STO was kindly provided by Dr. N. Zaffaroni (IRCCS Istituto Nazionale Tumori, Milan, Italy) and grown in 50/50 DMEM-Ham’s F12 medium (Lonza, Vierviers, Belgium), supplemented with 10% (v/v) heat-inactivated foetal bovine serum and 2 mM L-glutamine (L-Gln). All cell lines were maintained at 37 °C in a 5%/95% CO2/air atmosphere. All the compounds tested were freshly prepared by dissolving powder in dimethylsulfoxide (DMSO) (BDH Prolabo, Milan, Italy) and following dilution in culture medium. Cells were incubated with drugs for 48 h or 72 h (unless otherwise stated) at 37 °C in culture medium supplemented with 10% (v/v) heat-inactivated FBS; drug concentrations used for each assay and duration of treatments are reported in Legends to Figures.
(§2) Cellular sensitivity to drugs was evaluated by a cell-counting assay after 72-h drug exposure. Cells in the logarithmic phase of growth were seeded in duplicate into 6-well plates. Twenty-four hours after seeding, the drug was added to the medium. Cells were harvested 72 h after drug exposure and counted with a cell counter.

In test [3] the test system is NCI-H460. As to the kind of experiment: Cell-counting assay, 72-h drug exposure. The following applies: Homo sapiens, read-out: Cell Growth Inhibitory Activity NCI-H460 IC50 72 h. Type of test: cell-based.
Excerpt: as §1, §2

Test [4] relates to STO. The test is described as follows: Cell-counting assay, 72-h drug exposure. Format: cell-based. The conditions noted are these: Homo sapiens, read-out: Cell Growth Inhibitory Activity STO IC50 72 h.
Excerpt: as §1, §2

The structures appear in SMILES notation.

Turning to `O=c1c2ccccc2sc2cnccc12` [Compound 7], the IC50 (in general, the point on the concentration scale where inhibition reaches its midpoint) was 2.47 ± 0.09 µM in test [1], 46.9 µM in test [2], above 50 µM in test [3] and 46.9 µM in test [4].

Regarding `O=c1c2ccccc2oc2c1ccc[n+]2Cc1ccccc1` [Compound 10, 1-Benzyl-10-oxo-10H-9-oxa-1-azonia-anthracene bromide], the IC50 in test [1] is above 100 µM; in test [2], above 50 µM; in test [3], above 50 µM; in test [4] it was above 50 µM.

With `O=c1c2ccccc2oc2cnccc12` [Compound 4, 5H-chromeno[2,3-c]pyridin-5-one], the IC50 in test [1] is above 100 µM; in test [2], above 50 µM; in test [3] it was above 50 µM; in test [4], above 50 µM.

Turning to `CC(C)(C)c1ccc(C[n+]2ccc3c(c2)C(=O)c2ccccc2C3=O)cc1` [Compound 2c, 2-(4-tert-Butyl-benzyl)-5,10-dioxo-5,10-dihydro-benzo[g]isoquinolinium bromide], the IC50 in test [2] came to 0.46 ± 0.8 µM.

In the case of `O=C1c2ccccc2C(=O)c2c[n+](Cc3ccc(F)cc3F)ccc21` [Compound 2b, 2-(2,4-Difluoro-benzyl)-5,10-dioxo-5,10-dihydro-benzo[g]isoquinolinium bromide], the IC50 turned out to be 3.1 ± 0.5 µM in test [2] and 3.2 ± 0.5 µM in test [3].

For `O=C1c2ccccc2C(=O)c2c[n+](Cc3ccccc3)ccc21` [Compound 2a, 2-Benzyl-5,10-dioxo-5,10-dihydro-benzo[g]isoquinolinium bromide], the IC50 stood at 0.2 ± 0.01 µM in test [2] and 0.7 ± 0.01 µM in test [3].

For the compound `C=CCNC1=C2C[C@@H](C)C[C@H](OC)[C@H](O)[C@@H](C)/C=C(\C)[C@H](OC(N)=O)[C@@H](OC)/C=C\C=C(/C)C(=O)NC(=CC1=O)C2=O` [Compound 17-AAG, 17-N-allylamino-17-demethoxygeldanamycin, reference compound], the IC50 in test [2] is 0.069 ± 0.005 µM; in test [3] it was 0.01 ± 0.002 µM.

The values are drawn from paper PMC6017909, “Synthesis and Evaluation of the Tumor Cell Growth Inhibitory Potential of New Putative HSP90 Inhibitors” (Molecules : A Journal of Synthetic Chemistry and Natural …, 2018).
